The numbers were not newly measured in US6482832B1, “Heterocyclically substituted amides, their production and their use” (Abbott Laboratories, priority 1998, dated 2002), which cites them from elsewhere.

For one data set, the system named is cells. The note with it: surmount the cell membrane only with difficulty.
Data set [1] deals with calpain-mediated cleavage of pp60src in platelets. To be noted: activated platelets; Oda et al., J. Biol. Chem. 1993.

Read-outs that look alike come from different tables or passages of the source.

With `CC(C)C[C@H](NC(=O)[C@H]1O[C@@H]1C(=O)O)C(=O)NCCCCN=C(N)N` [E 64], the calpain inhibition result in the data set on calpain (known calpain inhibitors) was “good calpain inhibitors”. Besides, in the data set with cells, the effect on cells result was “poor effect on cells”.

In the case of `CCCC[C@@H](C=O)NC(=O)[C@H](CC(C)C)NC(=O)OCc1ccccc1` [calpeptin], in data set [1], the “cleavage of pp60src” value is “can prevent the cleavage of pp60src”.

Take `CC(=O)N[C@@H](CC(C)C)C(=O)N[C@@H](CC(C)C)C(=O)N[C@H](C=O)CCCNC(=N)N` [leupeptin]: the calpain inhibition result with calpain (known calpain inhibitors) is “good calpain inhibitors”. For the same compound, in the data set with cells, the effect on cells entry was “poor effect on cells”.

As for Ph—CONH—CH(CH2Ph)—CO—COCOOCH3, in the data set with calpain (M. R. Angelastro et al., J. Med. Chem. 1990, 33, 11-13), the calpain inhibition result is recorded as “only a weak calpain inhibitor”.
